{
  "source": "paper PMC5902495",
  "about": "“Synthesis of Symmetrical Tetrameric Conjugates of the Radiolanthanide Chelator DOTPI for Application in Endoradiotherapy by Means of Click Chemistry” (Frontiers in Chemistry, 2018)",
  "origin": "cited, not measured here",
  "key": {"[1]": {"settings": "cited from earlier work"}, "[2]": {"settings": "cited from earlier work", "remark": "listed apart in the source"}, "[3]": {"settings": "25°C, cited from earlier work"}, "[4]": {"settings": "25°C, cited from earlier work", "remark": "listed apart in the source"}, "[5]": {"settings": "25°C, I = 0.15 M NaCl, ref Baranyai et al., [2010]"}, "[6]": {"settings": "I = 0.15 M NaCl, ref Takács et al., [2014]"}, "[7]": {"settings": "25°C, I = 0.1 M KNO3, ref Bazakas and Lukeš, [1995], Kotková et al., [2009]"}, "[8]": {"settings": "25°C, I = 0.1 M KNO3, ref Lázár et al., [1991]"}, "[9]": {"settings": "I = 0.1 M KNO3, ref Baranyai et al., [2007]"}, "[10]": {"settings": "I = 0.1 M KNO3, ref Desreux et al., [1981]"}},
  "note": "Several values for one entry are separate records, joined by “and”; a condition that tells them apart may be missing. Equal values may be shown once. Read-outs that look alike come from different tables or passages of the source.",
  "data": [
    {"compound": "O=C([O-])CN(CCN(CC(=O)[O-])CC(=O)[O-])CC(=O)[O-].[Cu+2]", "note": "[Cu(EDTA), reference compound]", "values": [
      {"measurement": "stability constant of the Cu(EDTA) complex", "setting": "[1]; taken from the literature", "result": 19.05}
    ]},
    {"compound": "O=C(O)CN1CCN(CC(=O)O)CCN(CC(=O)O)CCN(CC(=O)O)CC1", "note": "[DOTA, 1,4,7,10-tetraazacyclododecane-1,4,7,10-tetraacetic acid]", "values": [
      {"measurement": "protonation constant CuH2L", "setting": "[1]; 25°C, 0.15 M NaCl", "result": "3.41 (1)"},
      {"measurement": "protonation constant CuH3L", "setting": "[1]; 25°C, 0.15 M NaCl", "result": "0.83 (2)"},
      {"measurement": "protonation constant CuHL", "setting": "[1]; 25°C, 0.15 M NaCl", "result": "4.08 (1)"},
      {"measurement": "logKML, CuL", "setting": "[1]; 25°C, I = 0.15 M NaCl, ref Takács et al., [2014]", "result": "21.97 (1)"},
      {"measurement": "log K1H", "setting": "[2]; [5]", "result": 9.14},
      {"measurement": "log K2H", "setting": "[2]; [5]", "result": 9.21},
      {"measurement": "log K3H", "setting": "[2]; [5]", "result": 4.48},
      {"measurement": "log K4H", "setting": "[2]; [5]", "result": 4.03},
      {"measurement": "log K5H", "setting": "[2]; [5]", "result": 1.99},
      {"measurement": "log K6H", "setting": "[2]; [5]", "result": 1.58},
      {"measurement": "Σlog KiH (total basicity)", "setting": "[2]; [5]", "result": 30.43},
      {"measurement": "protonation constant CaHL", "setting": "[3]; 0.15 M NaCl", "result": "3.90 (2)"},
      {"measurement": "logKML, CaL", "setting": "[3]; [6]", "result": "13.84 (1)"},
      {"measurement": "protonation constant ZnH2L", "setting": "[4]; 0.15 M NaCl", "result": "3.40 (1)"},
      {"measurement": "protonation constant ZnHL", "setting": "[4]; 0.15 M NaCl", "result": "4.16 (2)"},
      {"measurement": "logKML, ZnL", "setting": "[4]; [6]", "result": "17.35 (1)"}
    ]},
    {"compound": "O=[PH](O)CN1CCN(C[PH](=O)O)CCN(C[PH](=O)O)CCN(C[PH](=O)O)CC1", "note": "[DOTP^H]", "values": [
      {"measurement": "logKML, CuL", "setting": "[1]; 25°C, I = 0.1 M KNO3, ref Baranyai et al., [2007]", "result": 18.03},
      {"measurement": "logKML, CuL", "setting": "[1]; 25°C, I = 0.1 M KNO3, ref Desreux et al., [1981]", "result": 19.59},
      {"measurement": "log K1H", "setting": "[2]; [7]", "result": "10.41 and 10.58"},
      {"measurement": "log K2H", "setting": "[2]; [7]", "result": "6.83 and 6.93"},
      {"measurement": "log K3H", "setting": "[2]; [7]", "result": "1.97 and 1.90"},
      {"measurement": "Σlog KiH (total basicity)", "setting": "[2]; [7]", "result": "19.21 and 19.41"},
      {"measurement": "log K1H", "setting": "[2]; [8]", "result": 10.94},
      {"measurement": "log K2H", "setting": "[2]; [8]", "result": 8.24},
      {"measurement": "log K3H", "setting": "[2]; [8]", "result": 3.71},
      {"measurement": "Σlog KiH (total basicity)", "setting": "[2]; [8]", "result": 22.89},
      {"measurement": "protonation constant CaHL", "setting": "[3]; 0.1 M KNO3", "result": 3.94},
      {"measurement": "logKML, CaL", "setting": "[3]; [9]", "result": 9.46},
      {"measurement": "logKML, CaL", "setting": "[3]; [10]", "result": 9.39},
      {"measurement": "protonation constant ZnHL", "setting": "[4]; 0.1 M KNO3", "result": 2.62},
      {"measurement": "logKML, ZnL", "setting": "[4]; [9]", "result": 14.60},
      {"measurement": "logKML, ZnL", "setting": "[4]; [10]", "result": 15.80}
    ]},
    {"compound": "O=C(O)CN(CCN(CC(=O)O)CC(=O)O)CC(=O)O", "note": "[EDTA, ethylenediamine-tetraacetic acid]", "values": [
      {"measurement": "logK1H", "setting": "[2]; taken from the literature", "result": 9.43},
      {"measurement": "logK2H", "setting": "[2]; taken from the literature", "result": 6.12},
      {"measurement": "logK3H", "setting": "[2]; taken from the literature", "result": 2.85},
      {"measurement": "logK4H", "setting": "[2]; taken from the literature", "result": 2.18},
      {"measurement": "logK5H", "setting": "[2]; taken from the literature", "result": 1.77}
    ]}
  ]
}
